Assay results: publication PMC3265250 (Chemotherapy Research and Practice, 2011)

Assays:
clinical isolates of SA = conditions: 18 h
S. aureus ATCC 25923 = assay: MIC, microbroth dilution, referential strain ATCC 25923; assay type: cell-based, Staphylococcus aureus; conditions: ATCC 25923; microbroth dilution, MHB II, 5 × 10^5 CFU/mL, 18 h at 37°C, triplicate
Experimental: (§1) A total number of 24 SA strains were obtained from patients with erythrodermia and 3 reference SA ones from the American Type Culture Collection: 6538P ATCC, 9144 ATCC, and 25923 ATCC (Institute of Experimental Therapy, Wroclaw, Poland). […] Polypropylene 96-well plates (Sigma-Aldrich) were incubated for 18 h at 37°C. MIC was taken as the lowest drug concentration at which a noticeable growth was inhibited. […] The experiments were performed in triplicate.

[1] = test system: Superantigen positive S. aureus (14); conditions: for MIC 50% / MIC 90% / MIC Range / MBC Range: superantigen positive clinical isolates (14), triplicate; for MIC 50% / MIC 90% / MIC Range: microbroth dilution, MHB II, 5 × 10^5 CFU/mL, 18 h at 37°C; for MBC Range: more than 99.9% reduction of the initial inoculums
S. aureus ATCC 9144 = assay: MIC, microbroth dilution, referential strain ATCC 9144; assay type: cell-based, Staphylococcus aureus; conditions: ATCC 9144; microbroth dilution, MHB II, 5 × 10^5 CFU/mL, 18 h at 37°C, triplicate
S. aureus ATCC 6538P = assay: MIC, microbroth dilution, referential strain ATCC 6538P; assay type: cell-based, Staphylococcus aureus; conditions: ATCC 6538P; microbroth dilution, MHB II, 5 × 10^5 CFU/mL, 18 h at 37°C, triplicate
Experimental: as §1

[2] = test system: Superantigen negative S. aureus (10); conditions: for MIC 50% / MIC 90% / MIC Range / MBC Range: superantigen negative clinical isolates (10), triplicate; for MIC 50% / MIC 90% / MIC Range: microbroth dilution, MHB II, 5 × 10^5 CFU/mL, 18 h at 37°C; for MBC Range: more than 99.9% reduction of the initial inoculums

CCCCCCCCCC(=O)N[C@@H](Cc1c[nH]c2ccccc12)C(=O)N[C@H](CC(N)=O)C(=O)N[C@@H](CC(=O)O)C(=O)N[C@@H]1C(=O)NCC(=O)N[C@@H](CCCN)C(=O)N[C@@H](CC(=O)O)C(=O)N[C@H](C)C(=O)N[C@@H](CC(=O)O)C(=O)NCC(=O)N[C@H](CO)C(=O)N[C@@H]([C@H](C)CC(=O)O)C(=O)N[C@@H](CC(=O)c2ccccc2N)C(=O)O[C@@H]1C [Daptomycin, daptomycin]
1 to 4 mg/L: MICs values (range) (clinical isolates of SA)
1 to 4 µg/mL: MIC Range [1] | MBC Range [1] | MIC Range [2] | MBC Range [2]
2 µg/mL: MIC (S. aureus ATCC 25923) | MBC 50% [1] | MIC 90% [1] | MIC (S. aureus ATCC 9144) | MIC (S. aureus ATCC 6538P) | MBC 50% [2] | MBC 90% [2] | MIC 90% [2]
4 µg/mL: MBC 90% [1]
1 µg/mL: MIC 50% [1] | MIC 50% [2]

CCCCCCCCCCCCCCCC(=O)N[C@@H](CCCCN)C(=O)N[C@@H](CCCCN)C(N)=O [Lipopeptide, Pal-KK-NH2]
2 µg/mL: MIC 50% [1] | MIC (S. aureus ATCC 9144) | MIC (S. aureus ATCC 6538P) | MIC 50% [2]
8 µg/mL: MBC 90% [1] | MBC 90% [2]
2 to 8 µg/mL: MBC Range [1] | MBC Range [2]
4 µg/mL: MIC (S. aureus ATCC 25923) | MBC 50% [1] | MIC 90% [1] | MBC 50% [2] | MIC 90% [2]
1 to 8 µg/mL: MIC values (range) (clinical isolates of SA) | MIC Range [1] | MIC Range [2]

CC(C)C[C@H](NC(=O)[C@H](CCCNC(=N)N)NC(=O)CNC(=O)CNC(=O)[C@@H](N)CCCNC(=N)N)C(=O)N[C@H]1CSSC[C@@H](C(=O)N[C@H](C(=O)NCC(=O)N[C@@H](CCCNC(=N)N)C(N)=O)C(C)C)NC(=O)[C@H](C(C)C)NC(=O)[C@@H]2CSSC[C@H](NC(=O)[C@H](Cc3ccc(O)cc3)NC1=O)C(=O)N[C@@H](CCCNC(=N)N)C(=O)N[C@@H](CCCNC(=N)N)C(=O)N[C@@H](CCCNC(=N)N)C(=O)N[C@@H](Cc1ccccc1)C(=O)N2 [Protegrin 1, protegrin 1]
2 to 8 µg/mL: MBC Range [1] | MBC Range [2]
8 µg/mL: MBC 90% [1] | MBC 90% [2]
1 to 8 µg/mL: MIC values (range) (clinical isolates of SA)
1 to 4 µg/mL: MIC Range [1] | MIC Range [2]
4 µg/mL: MIC (S. aureus ATCC 25923) | MBC 50% [1] | MIC 90% [1] | MIC (S. aureus ATCC 6538P) | MBC 50% [2] | MIC 90% [2]
2 µg/mL: MIC 50% [1] | MIC (S. aureus ATCC 9144) | MIC 50% [2]
